According to the supplement of paper PMC5579334:
± gives the standard deviation of the averaged measurements.

Key:
[1] = test system: HSC1 (primary human Schwann cells); test: drug sensitivity score (DSS, CellTiter-Glo viability, 72 h) (DSS (dimensionless)); higher = more sensitive; extreme values may be limits of the assay
Procedure, shortened: (§1)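 Viability was scored by CellTiter-Glo ATP luminescence, scaled from vehicle to positive-control wells, with duplicates averaged where present. The cells, MPNST lines and primary human Schwann cells at 750–1000 per well, sat 72 h at 37 °C, 5% CO2, in 384-well plates preprinted with each compound at five concentrations in 10-fold steps. Four-parameter logistic fits were run on the data. These fits give drug sensitivity score and relative IC50 censored at the top concentration, and percent inhibition is reported at the top concentration.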

[2] = test system: HSC2 (primary human Schwann cells); test: as above
Procedure, shortened: as §1

S1507-2 [3] = test: as above
Procedure, shortened: as §1

S462 [4] = test: as above
Procedure, shortened: as §1

ST8814 [5] = test: as above
Procedure, shortened: as §1

STS26T [6] = test: as above
Procedure, shortened: as §1

[7] = test system: HSC1 (primary human Schwann cells); test: drug sensitivity score (DSS, CellTox-Green cytotoxicity, 72 h) (DSS (dimensionless)); higher = more cytotoxic; extreme values may be limits of the assay
Procedure, shortened: (§2)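 MPNST cell lines and primary human Schwann cells were incubated 72 h at 37 °C in 384-well plates holding five 10-fold compound dilutions. CellTox-Green was added before seeding at a final 1:1000 dilution and reported fluorescence from DNA released by disrupted cells. Signals were scaled to vehicle and positive-control wells, and cultures failing plate quality control were dropped. Drug sensitivity score and relative IC50 come from four-parameter logistic fits, with IC50 censored at the top concentration.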

[8] = test system: HSC2 (primary human Schwann cells); test: as above
Procedure, shortened: as §2

S1507-2 [9] = test: as above
Procedure, shortened: as §2

ST8814 [10] = test: as above
Procedure, shortened: as §2

STS26T [11] = test: as above
Procedure, shortened: as §2

[12] = test system: HSC1 (primary human Schwann cells); test: % inhibition of CellTiter-Glo viability at highest tested concentration (72 h), relative to DMSO and benzethonium chloride controls; higher = more inhibition
Procedure, shortened: as §1

[13] = test system: HSC2 (primary human Schwann cells); test: as above
Procedure, shortened: as §1

S1507-2 [14] = test: as above
Procedure, shortened: as §1

S462 [15] = test: as above
Procedure, shortened: as §1

ST8814 [16] = test: as above
Procedure, shortened: as §1

STS26T [17] = test: as above
Procedure, shortened: as §1

Structure (SMILES) | drug sensitivity score [1] | drug sensitivity score [2] | drug sensitivity score (S1507-2 [3]) | drug sensitivity score (S462 [4]) | drug sensitivity score (ST8814 [5]) | drug sensitivity score (STS26T [6]) | drug sensitivity score [7] | drug sensitivity score [8] | drug sensitivity score (S1507-2 [9]) | drug sensitivity score (ST8814 [10]) | drug sensitivity score (STS26T [11]) | % inhibition [12] [%] | % inhibition [13] [%] | % inhibition (S1507-2 [14]) [%] | % inhibition (S462 [15]) [%] | % inhibition (ST8814 [16]) [%] | % inhibition (STS26T [17]) [%]
CCN(CC)CCCC(C)Nc1ccnc2cc(Cl)ccc12 (centres undefined) [Chloroquine aq] (max concentration tested 100000 nM) | 9.99 | 9.45 | 20.19 ± 0.053 | 13 ± 1.7 | 17.4 | 14.5 | 9.24 | 8.02 | 18.3 ± 0.29 | 18.6 | 15.1 | 94.7 | 94.5 | 95.13 ± 0.85 | 95.68 ± 0.34 | 96.1 | 96.2
Cc1c(C(=O)Nc2ccc(N3C[C@@H](C)O[C@@H](C)C3)nc2)cccc1-c1ccc(OC(F)(F)F)cc1 [Erismodegib] (max concentration tested 10000 nM) | 0 | 0 | 0.871 ± 1.2 | 0 | 0 | 0.451 | 1.48 | 4.95 | 14.8 ± 20 | 0 | 0 | 9.09 | 8.65 | 9.49 ± 1.4 | 13.2 ± 2.2 | 1.35 | 16.9
CC(=O)N(O)CCCCCNC(=O)CCC(=O)N(O)CCCCCNC(=O)CCC(=O)N(O)CCCCCN [Deferoxamine aq] (max concentration tested 10000 nM) | 5.55 | 7.69 | 6.96 ± 1 | 6.82 ± 1.4 | 9.08 | 5.09 | 0 | 0 | 0.026 ± 0.037 | 3.55 | 0 | 60.6 | 64.9 | 61 ± 2.2 | 74.6 ± 9.3 | 88.2 | 52.3
N[C@@H](CSC(c1ccccc1)(c1ccccc1)c1ccccc1)C(=O)O [S-trityl-L-cysteine] (max concentration tested 40000 nM) | 0.233 | 0 | 0 | 0.0379 ± 0.054 | 0 | 0.0666 | 0 | 0 | 0 | 0 | 0 | 14.8 | -1.33 | 3.83 ± 4.3 | 8.17 ± 9.1 | 7.25 | 13
CN(C)C(=N)NC(=N)N [Metformin aq] (max concentration tested 100000 nM) | 0 | 0 | 0 | 0 | 0 | 0 | 0 | 0 | 0.0766 ± 0.11 | 0 | 0 | -13.1 | -15.5 | 6.36 ± 5.3 | 1.42 ± 6.1 | 7.41 | 5.16
CCCCCCCCCCCCCCCCCCOP(=O)([O-])OC1CC[N+](C)(C)CC1 [Perifosine aq/PBS] (max concentration tested 2500 nM) | 0 | 0 | 0 | 0.0036 ± 0.0051 | 1.66 | 1.96 | 0 | 0 | 0 | 0.404 | 0.96 | 9.06 | 7.97 | 1.67 ± 4.5 | 9.85 ± 1.6 | 23.6 | 32.7
Cc1sc2c(c1C)C(c1ccc(Cl)cc1)=N[C@H](CC(=O)OC(C)(C)C)c1nnc(C)n1-2 [(-)JQ1] (max concentration tested 10000 nM) | 0.0114 | 0.217 | 0.382 ± 0.54 | 0.987 ± 0.67 | 0.724 | 0.598 | 0 | 0 | 0 | 0 | 0 | 11 | 15.6 | 12.5 ± 8.2 | 21.6 ± 8.9 | 20 | 15.6
O=C(O)C1(C(=O)O)CCC1.[NH2-].[NH2-].[Pt+2] [Carboplatin aq] (max concentration tested 100000 nM) | 8.01 | 8.82 | 5.78 ± 1.4 | 8.728 ± 0.04 | 6.09 | 6.61 | 6.3 | 7.86 | 2.71 ± 1.2 | 6.79 | 4.47 | 85.9 | 93.2 | 73.8 ± 1.3 | 98.3 ± 1 | 87.5 | 81.2
CC1=C2C[C@H]3[C@@H](CC=C4C[C@@H](O)CC[C@@]43C)[C@@H]2CC[C@]12O[C@@H]1C[C@H](C)CN[C@H]1[C@H]2C [Cyclopamine] (max concentration tested 10000 nM) | 0 | 0 | 0.114 ± 0.16 | 0 | 0 | 0 | 0 | 0 | 0.06 ± 0.085 | 0 | 0 | 9.19 | 7.88 | 11.5 ± 3 | -1.34 ± 2.9 | -4.3 | 4.33
C[C@H]1C=C2C(=O)O[C@H]3CC[C@@H](C1)[C@@]23O [Galiellalactone] (max concentration tested 50000 nM) | 11.2 | 7.95 | 7.75 ± 0.57 | 9.23 ± 1.4 | 7.08 | 9.38 | 0.367 | 0 | 2.69 ± 1.4 | 0 | 2.26 | 97.6 | 98.5 | 92.8 ± 14 | 100 ± 2.5 | 88.9 | 101
Nc1cccc2c1CN(C1CCC(=O)NC1=O)C2=O (centres undefined) [Lenalidomide] (max concentration tested 10000 nM) | 0.47 | 0.0019 | 1.35 ± 1.9 | 0 | 0 | 0 | 0 | 2.65 | 0 | 0 | 0 | 9.28 | 11 | 10.8 ± 9.4 | 2.04 ± 9.8 | 3.01 | 0.527
Cc1sc2c(c1C)C(c1ccc(Cl)cc1)=N[C@@H](CC(=O)OC(C)(C)C)c1nnc(C)n1-2 [(+)JQ1] (max concentration tested 10000 nM) | 10.2 | 10.4 | 18.5 ± 0.8 | 11.3 ± 0.7 | 14.8 | 8.02 | 0 | 0 | 12.7 ± 1.7 | 5.02 | 0 | 61.1 | 66 | 86.1 ± 1 | 69.3 ± 1.7 | 75.6 | 43.2
Cn1cnc2c(F)c(Nc3ccc(Br)cc3F)c(C(=O)NOCCO)cc21 [MEK-162] (max concentration tested 1000 nM) | 0.0621 | 0 | 1.31 ± 1.3 | 2.73 ± 0.038 | 1.66 | 2.04 | 0 | 0 | 0 | 0 | 0 | 15.1 | -2.17 | 19.9 ± 8.2 | 29.8 ± 0.71 | 23.8 | 24.5
Cn1cc(C[C@@H](N)C(=O)O)c2ccccc21 [1-methyl-D-tryptophan aq] (max concentration tested 5000 nM) | 0 | 0 | 0 | 0 | 0 | 0 | 0 | 0.888 | 0.475 ± 0.58 | 0 | 0.0551 | 4.52 | 1.85 | 0.132 ± 6.3 | 0.824 ± 5.1 | -2.14 | -5.75
CC(=O)O[C@]1(C(C)=O)CC[C@H]2[C@@H]3C=C(C)C4=CC(=O)CC[C@]4(C)[C@H]3CC[C@@]21C [Megestrol] (max concentration tested 10000 nM) | 0 | 0 | 0 | 0 | 0 | 0 | 0 | 0 | 0 | 0 | 0 | 9.41 | 8.15 | -2.04 ± 5.3 | 2.52 ± 6.2 | 4.75 | 1.5
CC(C)NC[C@@H](C(=O)N1CCN(c2ncnc3c2[C@H](C)C[C@H]3O)CC1)c1ccc(Cl)cc1 [GDC-0068] (max concentration tested 10000 nM) | 0.374 | 0 | 2.03 ± 1 | 0.195 ± 0.28 | 0.785 | 5.77 | 0 | 0 | 0 | 0 | 0 | 21.6 | 6.99 | 31.5 ± 4.2 | 13.5 ± 7.9 | 17.1 | 44
NC(=O)c1cccc2cn(-c3ccc(C4CCCNC4)cc3)nc12 (centres undefined) [MK-4827] (max concentration tested 10000 nM) | 2.86 | 1.47 | 5.09 ± 0.48 | 8.55 ± 0.22 | 8.12 | 6.01 | 0 | 0 | 0.763 ± 1.1 | 4.56 | 0.673 | 40 | 23.4 | 57.5 ± 6.1 | 86.1 ± 3 | 89.5 | 67.6
